For orientation: IC50 means the concentration that gives 50% inhibition.

We go through one molecule from article PMC4578295 (Chemistry & biology, 2015).

This assay deals with T1, KDM4B (Homo sapiens, UniProt O94953).
T1 sequence (O94953 1-500): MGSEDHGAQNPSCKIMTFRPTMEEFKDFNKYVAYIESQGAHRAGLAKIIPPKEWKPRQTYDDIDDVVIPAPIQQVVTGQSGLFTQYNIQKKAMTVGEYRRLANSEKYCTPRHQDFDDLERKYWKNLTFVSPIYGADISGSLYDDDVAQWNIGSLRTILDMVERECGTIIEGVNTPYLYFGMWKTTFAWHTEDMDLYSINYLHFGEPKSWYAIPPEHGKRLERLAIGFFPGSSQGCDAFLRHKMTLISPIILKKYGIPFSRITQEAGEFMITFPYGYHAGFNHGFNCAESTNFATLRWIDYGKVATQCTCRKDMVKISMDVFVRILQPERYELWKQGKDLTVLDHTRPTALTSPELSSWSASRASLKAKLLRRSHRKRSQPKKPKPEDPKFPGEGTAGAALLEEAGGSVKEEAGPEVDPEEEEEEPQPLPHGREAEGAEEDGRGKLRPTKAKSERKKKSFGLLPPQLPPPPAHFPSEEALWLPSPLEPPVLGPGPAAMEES
Put plainly: 1H-15N TROSY-HSQC NMR shifts. It is filed as biochemical.

On to `O=C(NCCCc1ccccc1)c1cccc(-c2cc(O)c3ncccc3c2)c1` [B3, NCGC00244536], for which the IC50 is approximately 10 nM.
